The source of these data is US10689344B2, “Biphenylamide derivative Hsp90 inhibitors” (University of Kansas, priority 2013, dated 2020).

The test system of assay [1] is SKBr3 (estrogen receptor negative, HER2 over-expressing breast cancer cells). Briefly: Anti-proliferation assay (MTS/PMS, 72 h), SKBr3. To be noted: Homo sapiens. The format is cell-based. The protocol:
(§1) Cells were maintained in a 1:1 mixture of Advanced DMEM/F12 (Gibco) supplemented with non-essential amino acids, L-glutamine (2 mM), streptomycin (500 μg/mL), penicillin (100 units/mL), and 10% FBS. Cells were grown to confluence in a humidified atmosphere (37° C., 5% CO2), seeded (2000/well, 100 μL) in 96-well plates, and allowed to attach overnight. Compound at varying concentrations in DMSO (1% DMSO final concentration) was added, and cells were returned to the incubator for 72 h. At 72 h, the number of viable cells was determined using an MTS/PMS cell proliferation kit (Promega) per the manufacturer's instructions. Cells incubated in 1% DMSO were used at 100% proliferation, and values were adjusted accordingly. IC50 values were calculated from separate experiments performed in triplicate using GraphPad Prism.
(§2) Anti-proliferative studies with the compounds described herein were performed against the SKBr3 (estrogen receptor negative, HER2 over-expressing breast cancer cells) and MCF-7 (estrogen receptor positive breast cancer cells) breast cancer cell lines. […] In some embodiments, in contrast to the novobiocin derivatives, which usually manifest better anti-proliferative activities against the SKBr3 cell line, the biphenyl derivatives described herein were more efficacious against the MCF-7 cell line. In general, all substitutions on the phenyl ring were determined to be beneficial, consistent with the existence of a hydrophobic pocket in this region of the Hsp90 C-terminal binding site.

Assay [2] deals with MCF-7 (estrogen receptor positive breast cancer cells). Briefly: Anti-proliferation assay (MTS/PMS, 72 h), MCF-7. The format is cell-based. To be noted: Homo sapiens. As to the method: as §1, §2
The mark [3] stands for this setting: SK-BR-3, Table 1, ortho, meta and para biphenyl cores.
Where [4] appears, read: MCF7, Table 1, ortho, meta and para biphenyl cores.
Setting [5] is: SK-BR-3, Table 3, substituted para-para biphenyl core.
Setting [6] is: MCF7, Table 3, substituted para-para biphenyl core.
Where [7] appears, read: SK-BR-3, Table 8, para-para biphenyl core with substituted biphenylamide group.
Where [8] appears, read: MCF7, Table 8, para-para biphenyl core with substituted biphenylamide group.
The mark [9] stands for this setting: SK-BR-3, Table 6, para-para biphenyl core with substituted benzylamide.
[10] abbreviates: MCF7, Table 6, para-para biphenyl core with substituted benzylamide.
[11] abbreviates: SK-BR-3, Table 7, para-para biphenyl core with modified ether groups.
[12] abbreviates: MCF7, Table 7, para-para biphenyl core with modified ether groups.
The mark [13] stands for this setting: SK-BR-3, Table 2, para-meta biphenyl core with substituted benzylamide.
Where [14] appears, read: MCF7, Table 2, para-meta biphenyl core with substituted benzylamide.

As to `CC(=O)Oc1ccc(C(=O)Nc2ccc(-c3ccc(OC4CCN(C)CC4)cc3)cc2)cc1CC=C(C)C` [Compound 61j, 2-(3-methylbut-2-en-1-yl)-4-((4′-((1-methylpiperidin-4-yl)oxy)-[1,1′-biphenyl]-4-yl)carbamoyl)phenyl acetate], the IC50 in assay [1] (setting [3]) was 1.82 ± 0.21 µM; in assay [2] (setting [4]), 1.37 ± 0.18 µM.
`COc1cccc(-c2cc(C(=O)Nc3ccc(-c4ccc(OC5CCN(C)CC5)cc4)cc3Cl)ccc2OC)c1` [Compound 29l, N-(3-chloro-4′-((1-methylpiperidin-4-yl)oxy)-[1,1′-biphenyl]-4-yl)-3′,6-dimethoxy-[1,1′-biphenyl]-3-carboxamide]: the half-maximal inhibitory concentration (IC50) in assay [1] (setting [5]) amounted to 4.75 µM; in assay [2] (setting [6]) it was 1.8 ± 0.19 µM.
As to `COc1ccc(C(=O)Nc2ccc(-c3ccc(OC4CCN(C)CC4)cc3)cc2)cc1-c1ccc(O)cc1` [Compound 50b, 4′-hydroxy-6-methoxy-N-(4′-((1-methylpiperidin-4-yl)oxy)-[1,1′-biphenyl]-4-yl)-[1,1′-biphenyl]-3-carboxamide], the IC50 in assay [1] (setting [7]) was 0.13 ± 0.02 µM; in assay [2] (setting [8]), 0.5 ± 0.01 µM.
For the compound `CN1CCC(Oc2ccc(-c3ccc(NC(=O)c4ccc(C(C)(C)C)cc4)cc3)cc2)CC1` [Compound 41g, 4-(tert-butyl)-N-(4′-((1-methylpiperidin-4-yl)oxy)-[1,1′-biphenyl]-4-yl)benzamide], the IC50 was determined as 1.26 ± 0.37 µM in assay [1] (setting [3]), 1.26 ± 0.37 µM in assay [1] (setting [9]), 1.08 ± 0.08 µM in assay [2] (setting [4]) and 1.08 ± 0.08 µM in assay [2] (setting [10]).
Consider `COc1cccc(-c2cc(C(=O)Nc3ccc(-c4ccc(OCCCN(C)C)cc4)cc3)ccc2OC)c1` [Compound 56c, N-(4′-(3-(dimethylamino)propoxy)-[1,1′-biphenyl]-4-yl)-3′,6-dimethoxy-[1,1′-biphenyl]-3-carboxamide], for which the values for the 50% inhibitory concentration (IC50) in assay [1] (setting [11]) and in assay [2] (setting [12]) were 1.02 ± 0.05 µM and 0.87 ± 0.04 µM, respectively.
On to `COc1cccc(-c2cc(C(=O)Nc3ccc(-c4ccc(OC5CCN(C)CC5)cc4)cc3)ccc2O)c1` [Compound 49j], for which the IC50 in assay [1] (setting [7]) amounted to 2.78 ± 0.35 µM; in assay [2] (setting [8]) it was 2.71 ± 0.45 µM.
For `CN1CCC(Oc2ccc(-c3ccc(NC(=O)c4ccc(I)cc4)cc3)cc2)CC1` [Compound 41d, 4-iodo-N-(4′-((1-methylpiperidin-4-yl)oxy)-[1,1′-biphenyl]-4-yl)benzamide], the figures for the IC50 in assay [1] (setting [9]) and in assay [2] (setting [10]) were 0.31 ± 0.09 µM and 0.58 ± 0.01 µM, respectively.
`COc1ccc(C(=O)Nc2ccc(-c3ccc(OC4CCN(C)CC4)cc3)cc2)cc1-c1cccc(NC(C)=O)c1` [Compound 50d, 3′-acetamido-6-methoxy-N-(4′-((1-methylpiperidin-4-yl)oxy)-[1,1′-biphenyl]-4-yl)-[1,1′-biphenyl]-3-carboxamide]: the IC50 in assay [1] (setting [7]) was 3.37 ± 0.74 µM; in assay [2] (setting [8]), 1.43 ± 0.28 µM.
For the compound `COc1cccc(-c2cc(C(=O)Nc3ccc(-c4ccc(OC5CCN(C)CC5)c(OC)c4)cc3)ccc2OC)c1` [Compound 29e, 3′,6-dimethoxy-N-(3′-methoxy-4′-((1-methylpiperidin-4-yl)oxy)-[1,1′-biphenyl]-4-yl)-[1,1′-biphenyl]-3-carboxamide], the half-maximal inhibitory concentration (IC50) in assay [1] (setting [5]) amounted to 0.68 ± 0.13 µM; in assay [2] (setting [6]), 1.32 ± 0.08 µM.
Taken in the same sequence, the figures for `COc1cccc(-c2cc(C(=O)Nc3ccc(-c4ccc(OC5CCN(C)CC5)cc4N)cc3)ccc2OC)c1` [Compound 38b, N-(2′-amino-4′-((1-methylpiperidin-4-yl)oxy)-[1,1′-biphenyl]-4-yl)-3′,6-dimethoxy-[1,1′-biphenyl]-3-carboxamide] were 2.13 ± 0.06 µM and 1.76 ± 0.37 µM.
On to `Cc1cccc(C(=O)Nc2cccc(-c3ccc(OC4CCN(C)CC4)cc3)c2)c1` [Compound 6d, 3-methyl-N-(4′-((1-methylpiperidin-4-yl)oxy)-[1,1′-biphenyl]-3-yl)benzamide], for which the IC50 in assay [1] (setting [13]) was found to be 11.4 ± 1.37 µM; in assay [2] (setting [14]), 7.73 ± 1.9 µM.
Take `COc1cccc(-c2cc(C(=O)Nc3ccc(-c4ccc(OC5CCN(C)CC5)c([N+](=O)[O-])c4)cc3)ccc2OC)c1` [Compound 34a, 3′,6-dimethoxy-N-(4′-((1-methylpiperidin-4-yl)oxy)-3′-nitro-[1,1′-biphenyl]-4-yl)-[1,1′-biphenyl]-3-carboxamide]: the figures for the IC50 in assay [1] (setting [5]) and in assay [2] (setting [6]) were 1.95 µM and 1.25 ± 0.28 µM, respectively.
Take `COc1cccc(-c2cc(C(=O)Nc3ccc(-c4ccc(OC5CCN(C)CC5)cc4Cl)cc3)ccc2OC)c1` [Compound 29j, N-(2′-chloro-4′-((1-methylpiperidin-4-yl)oxy)-[1,1′-biphenyl]-4-yl)-3′,6-dimethoxy-[1,1′-biphenyl]-3-carboxamide]: the IC50 in assay [1] (setting [5]) was found to be 3.68 µM; in assay [2] (setting [6]), 3.12 µM.
For the compound `COc1cccc(-c2cc(NC(=O)c3ccc(-c4ccc(OC5CCN(C)CC5)cc4)cc3)ccc2OC)c1` [Compound 60], the IC50 was 1.64 ± 0.79 µM in assay [1] (SK-BR-3, Table 5, modified linkers in para-para biphenyl core) and 1.22 ± 0.13 µM in assay [2] (MCF7, Table 5, modified linkers in para-para biphenyl core).
For `COc1cccc(-c2cc(C(=O)Nc3ccc(-c4ccc(OC5CCN(C)CC5)cc4)nc3)ccc2OC)c1` [Compound 19c, 3′,6-dimethoxy-N-(6-(4-((1-methylpiperidin-4-yl)oxy)phenyl)pyridin-3-yl)-[1,1′-biphenyl]-3-carboxamide], the IC50 in assay [1] (SK-BR-3, Table 4, para-para heteroatom substituted biphenyl core) came to 1.21 ± 0.13 µM; in assay [2] (MCF7, Table 4, para-para heteroatom substituted biphenyl core) it was 1.02 ± 0.01 µM.
In the case of `CN1CCC(Oc2ccc(-c3cccc(NC(=O)c4ccc(C(C)(C)C)cc4)c3)cc2)CC1` [Compound 6e, 4-(tert-butyl)-N-(4′-((1-methylpiperidin-4-yl)oxy)-[1,1′-biphenyl]-3-yl)benzamide], the half-maximal inhibitory concentration (IC50) in assay [1] (setting [3]) was 1.51 ± 0.31 µM; in assay [1] (setting [13]), 1.51 ± 0.31 µM; in assay [2] (setting [4]), 3.45 ± 0.02 µM; in assay [2] (setting [14]) it was 3.45 ± 0.02 µM.
On to `COc1cccc(-c2cc(C(=O)Nc3ccc(-c4ccc(OCCC5CCCCN5)cc4)cc3)ccc2OC)c1` (stereo not drawn) [Compound 56a, 3′,6-dimethoxy-N-(4′-(2-(piperidin-2-yl)ethoxy)-[1,1′-biphenyl]-4-yl)-[1,1′-biphenyl]-3-carboxamide], for which the IC50 in assay [1] (setting [11]) was 0.85 ± 0.2 µM; in assay [2] (setting [12]), 0.95 µM.
For `COc1ccc(C(=O)Nc2ccc(-c3ccc(OC4CCN(C)CC4)cc3)cc2)cc1-c1cccc(O)c1` [Compound 50a, 3′-hydroxy-6-methoxy-N-(4′-((1-methylpiperidin-4-yl)oxy)-[1,1′-biphenyl]-4-yl)-[1,1′-biphenyl]-3-carboxamide], the concentration for half-maximal inhibition (IC50) came to 1.56 ± 0.35 µM in assay [1] (setting [7]) and 1.08 ± 0.34 µM in assay [2] (setting [8]).
Take `COc1cccc(-c2cc(C(=O)Nc3ccc(-c4ccc(OC5CCN(C)CC5)cc4)cc3N)ccc2OC)c1` [Compound 38d, N-(3-amino-4′-((1-methylpiperidin-4-yl)oxy)-[1,1′-biphenyl]-4-yl)-3′,6-dimethoxy-[1,1′-biphenyl]-3-carboxamide]: the half-maximal inhibitory concentration (IC50) came out at 3.21 ± 0.45 µM in assay [1] (setting [5]) and 2.25 ± 0.49 µM in assay [2] (setting [6]).
Turning to `Cc1ccc(C(=O)Nc2ccc(-c3ccc(OC4CCN(C)CC4)cc3)cc2)cc1I` [Compound 41m, 3-iodo-4-methyl-N-(4′-((1-methylpiperidin-4-yl)oxy)-[1,1′-biphenyl]-4-yl)benzamide], the IC50 in assay [1] (setting [9]) stood at 0.93 ± 0.2 µM; in assay [2] (setting [10]) it was 1.17 ± 0.2 µM.
As for `CC(=O)Oc1ccc(C(=O)Nc2cccc(-c3cccc(OC4CCN(C)CC4)c3)c2)cc1CC=C(C)C` [Compound 61f, 2-(3-methylbut-2-en-1-yl)-4-((3′-((1-methylpiperidin-4-yl)oxy)-[1,1′-biphenyl]-3-yl)carbamoyl)phenyl acetate], the IC50 in assay [1] (setting [3]) worked out at 1.76 ± 0.16 µM; in assay [2] (setting [4]), 1.7 ± 0.21 µM.
As to `COc1cccc(-c2cc(C(=O)Nc3ccc(-c4ccc(OC5CCN(C)CC5)cc4)cc3NC(C)=O)ccc2OC)c1` [Compound 39d, N-(3-acetamido-4′-((1-methylpiperidin-4-yl)oxy)-[1,1′-biphenyl]-4-yl)-3′,6-dimethoxy-[1,1′-biphenyl]-3-carboxamide], the IC50 was 3.51 ± 0.56 µM in assay [1] (setting [5]) and 1.66 ± 0.59 µM in assay [2] (setting [6]).
With `CN1CCC(Oc2ccc(-c3cccc(NC(=O)c4ccc(Cl)cc4Cl)c3)cc2)CC1` [Compound 6n, 2,4-Dichloro-N-(4′-((1-methylpiperidin-4-yl)oxy)-[1,1′-biphenyl]-3-yl)benzamide], the IC50 came out at 5.91 ± 0.15 µM in assay [1] (setting [13]) and 3.93 ± 0.47 µM in assay [2] (setting [14]).
In the case of `COc1cccc(-c2cc(C(=O)Nc3ccc(-c4ccc(OC5CCN(C)CC5)c(NC(C)=O)c4)cc3)ccc2OC)c1` [Compound 39a, N-(3′-acetamido-4′-((1-methylpiperidin-4-yl)oxy)-[1,1′-biphenyl]-4-yl)-3′,6-dimethoxy-[1,1′-biphenyl]-3-carboxamide], the IC50 in assay [1] (setting [5]) was 2.66 ± 0.76 µM; in assay [2] (setting [6]), 1.84 ± 0.43 µM.
With `CN1CCC(Oc2ccc(-c3ccc(NC(=O)c4cc5ccccc5[nH]4)cc3)cc2)CC1` [Compound 47a, N-(4′-((1-methylpiperidin-4-yl)oxy)-[1,1′-biphenyl]-4-yl)-1H-indole-2-carboxamide], the figures for the IC50 in assay [1] (setting [9]) and in assay [2] (setting [10]) were 0.64 ± 0.08 µM and 0.58 ± 0.02 µM, respectively.
